Measured values as given in patent publication US20070032477A1, “Pteridine derivatives useful for making pharmaceutical compositions” (priority 2003, published 2007).

Legend:
[1] = test system: TNBS-induced colitis in C57 BL/6 male mice; assay: Trinitrobenzenesulfonate-induced colitis test in mice (Example 210); assay type: in vivo
Description: C57 BL/6 male mice (4-5 weeks) were obtained from M&B (Denmark), bred under standard pathogen-free conditions and maintained in the certified animal facility of the University Hospital Gasthuisberg, Catholic University of Leuven (Leuven, Belgium). Experiments were approved by the local Ethical Committee of Animal Experimentation. Colitis was induced by rectal administration of 1 mg trinitrobenzenesulphonate (hereinafter referred as TNBS) in 50% ethanol with 2 times pre-sensitization. Briefly, mice were sensitized twice 10 days and 5 days before challenge. For sensitization, a 2×2 cm field of the abdominal skin was shaved, and 100 μl of 5 mg TNBS in 50% ethanol solution was applied. On the day of challenge, mice were first lightly anesthetized with metofane, subsequently TNBS was administered per rectum via a round-tip needle equipped with a 1-ml syringe. The tip of the needle was inserted so that the tip was 3.5 to 4 cm proximal to the anal verge and TNBS was injected with a total volume of 100 μl. To ensure distribution of TNBS within the entire colon and cecum, mice were held in a vertical position for 1 minute after the injection.
The compound of example 17 (2-amino-4-[(N-phenoxyacetyl)-piperazin-1-yl]-6-(3,4-dimethoxy-phenyl)pteridine) was given by daily intra-peritoneal injection at the dose of 20 mg/kg (400 μg dissolved in 100 μl PBS with 10% DMSO). Control mice were treated with vehicle only. Body weights of all animals were recorded daily in order to follow the development of inflammatory colitis over a period of 10 days.
Both macroscopic and microscopic histology evaluations were performed as follows. Briefly, mice were sacrificed at day 2 by cervical […], the colon was excised and was immediately examined visually, and damage was scored on a 0-12 scale, as described previously by Shen et al. in Int. Immunopharmacol. (2004), 4:939-951. Colon sections were then fixed in 6% formalin and embedded in paraffin, cut into sections, and then stained with hematoxylin and eosin. Stained sections were examined for evidence of colitis using as criteria the presence of cell infiltration, elongation and/or distortion of crypts, crypt abscesses, reduction in goblet cell number, frank ulceration, and edema formation.
Myeloperoxidase (MPO) activity was measured as described previously by Shen et al. (cited supra). Briefly, two days after intracolonic injection of TNBS, 50 mg colon was removed, homogenised and sonicated on ice. Samples were frozen in liquid nitrogen and subsequently thawed in a water bath at 37° C., each step lasted 3 minutes and the procedure was repeated for two cycles. After centrifugation an aliquot of the supernatant was then allowed to react with a solution of tetra-methyl-benzidine (1.6 mM) and 0.1 mM H2O2. The rate of change in absorbance was measured spectrophotometrically at 460 nm. MPO activity was defined as the quantity of enzyme degrading 1 μmol of peroxide/minute at 37° C. and was expressed in units per gram weight of wet tissue. Sample enzyme activity was measured from a standard curve of known MPO unit activity (assay sensitivity 5×10^−7 units per well).
Serum levels of antibodies generated against TNBS were measured in the mouse sera on the 10th day after disease induction by enzyme-linked immunosorbent assay (ELISA). The ELISA method used herein is as reported in detail by Shen et al (cited supra).
Quantitative Reverse Transcriptase (RT)-PCR for cytokine mRNA was performed as follows: part of the colon removed on day 2 after TNBS application was immediately frozen in liquid nitrogen after dissection and stored at −70° C. until extraction of total RNA using the method of Shen et al (cited supra). A constant amount of 1 μg of total RNA was used for oligo-(dT)-primed cDNA synthesis (Ready-to-go-kit, Pharmacia, Uppsala, Sweden). After 90 minutes at 37° C., the reverse transcriptase was inactivated by incubating the cDNA samples for 5 minutes at 95° C. […]

[2] = test system: CII induced rheumatoid arthritis in DBA mice; assay: Collagen type II induced model of rheumatoid arthritis; conditions: mice in vivo; example 17 up to 40 mg/kg/day; methotrexate 10 mg/kg/day, 3 times a week
Source text: Collagen type II (hereinafter referred as CII) induced experimental model of rheumatoid arthritis (hereinafter referred as RA) in DBA mice is widely accepted as the most relevant and predictive preclinical model for RA. In this model, DBA mice are immunized with CII, the collagen type mainly present in the joint structures, together with complete Freund Adjuvant in their tail. 2 to 3 weeks later, several of the immunized mice start to develop arthritis in the four footpaths. In order to further worsen the disease, mice are given a second CII boost at three weeks after the first immunisation, this time however in a footpath. Because the immune system is already immunised in these mice, this rapidly provokes a severe swelling of the injected footpath (named Delayed Type Hypersensitivity or DTH) which can be used as a measurement for T-cell activation. Within a few days after the booster, almost all untreated animals start developing symptoms of arthritis. RA development is scored from 0 to 16 (16 being severe clinical arthritis in all four footpaths). At the end of the study (3 weeks after the CII boost) antibody formation was determined against CII and histology performed on the footpaths.
The efficiency of the pteridine derivative of example 17 (administered in an amount of 20 mg/kg/day, started one day before the CII boost) was explored in this CII-model.

In the case of `COc1ccc(-c2cnc3nc(N)nc(N4CCN(C(=O)COc5ccccc5)CC4)c3n2)cc1OC` [Example 17, 2-amino-4-[(N-phenoxyacetyl)-piperazin-1-yl]-6-(3,4-dimethoxy-phenyl)pteridine], the “days required to recover original body weight” value ([1]; daily i.p. 20 mg/kg) was 6 days, the microscopic score ([1]; daily i.p. 20 mg/kg, day 2) was 6.0±0.7 and the average macroscopic score ([1]; daily i.p. 20 mg/kg, day 2, 0-12 scale) was 6.3±0.7. For the same compound, the “MPO activity in colon” value ([1]; daily i.p. 20 mg/kg, two days after TNBS) was 8.9±2.0 U/g, the “reduction in average macroscopic score” value ([1]; daily i.p. 20 mg/kg, versus control mice) was 30% and the “cytokine mRNA levels for TNF-α, IL-18 and IFN-γ in colon” value ([1]; day 2, differences did not reach statistical significance) was “all reduced”. The “Anti-TNBS antibody (IgG2a) levels” value ([1]; serum, after treatment) was 76.6±3.3 OD, the “Anti-TNBS antibody (IgG1) levels” value ([1]; serum, compared to untreated mice) was “significantly lower” and the “mortality or cytotoxic effect on increasing the dose” value [2] was “no mortality or cytotoxic effect”.
